Experimental data from patent US20260378560A1, “APPROACHES TO DESIGNING AND PERFORMING COMPRESSED BIOLOGICAL EXPERIMENTS AND SYSTEMS FOR IMPLEMENTING THE SAME” (EXVIVO LABS INC., priority 2023, published 2026).

Assays:
[1] = test system: REH; assay: Cell viability (CellTiter Glo), library of cancer drugs, individual or sample compression with randomized (alphabetical) pools, REH; type: cell-based; settings: REH
How it was run: (§1)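 Cells cultured with each drug individually at 1 nM–10 μM; viability by ATP luminescence (CellTiter Glo) to build dose-response curves and DRS. Samples read singly or pooled alphabetically (each drug in 3 of 7 pools), with pooled DRS recovered by additivity-based SUM deconvolution.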

[2] = test system: MOLT-4; assay: Cell viability (CellTiter Glo), library of cancer drugs, individual or sample compression with randomized (alphabetical) pools, MOLT-4; type: cell-based
How it was run: as §1

[3] = test system: REH; assay: Cell viability (CellTiter Glo), compressed perturbation pools with informed pool design, MAX-based deconvolution, REH; settings: REH;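 on DRS from MAX-based deconvolution: higher DRS means a larger drug effect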
How it was run: (§2)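 Drugs dosed from 1 nM to 10 μM with ATP-luminescence viability, giving a DRS per drug. Pools designed by drug class, with same-class drugs in separate cohorts and clinically toxic pairs kept apart.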

[4] = test system: MOLT-4; assay: Cell viability (CellTiter Glo), compressed perturbation pools with informed pool design, MAX-based deconvolution, MOLT-4;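 on DRS from MAX-based deconvolution: higher DRS means a larger drug effect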
How it was run: as §2

[5] = test system: REH; assay: Cell viability (CellTiter Glo), compressed perturbation pools with informed pool design, SUM-based deconvolution, REH; design: scale not given here
Method: (§3) Total cell viability was measured for each sample using an ATP-based luminescence assay (i.e., CellTiter Glo). Each cancer drug was then screened at multiple concentrations ranging from one nM to ten μM in order to generate a dose-response curve and calculate a DRS for each cancer cell line.
(§4) Each cancer drug was cultured with target cells individually. At the end of the screen, samples were either analyzed individually or compressed into pools for analysis. The library was compressed alphabetically into ten cohorts, each of which contained seven cancer drugs present in three out of the seven pools, as shown in Table VII. Said another way, the screening platform 210 generated a “7 pick 3” compressed library by assigning the cancer drugs among different pools. […] The library was also compressed into ten cohorts with pools designed based on information known about each cancer drug, as shown in Table VIII. After cell viability measurement and DRS calculation, the DRS of each cancer drug in the samples generated based on the pools were deconvoluted and compared to the DRS for each cancer drug measured individually.
(§5) In parallel to the exemplary sample compression screen covered in Table VII, perturbations were compressed into pools and then screened. The pools were designed using drug class as a feature with two compression rules (or simply “rules”). The first rule required that drugs from the same class be separated into different cohorts (i.e., mutually exclusive groups of pools). The second rule separated PI3K pathway inhibitors from MAPK pathway inhibitors, as inhibiting these pathways in parallel is known to be synergistic but has not been clinically effective due to dose-limiting toxicities. A benefit of compressing perturbations is the ability to measure additive, antagonistic, and synergistic effects between drugs in the same pool. However, these effects can negatively impact deconvolution of individual drug effects. Therefore, combinations of drugs for which evidence of clinical toxicity exists can be assigned to different pools in accordance with an informed pooling operation. As new preclinical or clinical evidence of toxic combinations becomes available, the rules implemented by the screening platform 210—and more specifically, its algorithm for compressing members of a library—can be updated accordingly.
(§6) In SUM-based deconvolution, an assumption of additivity is used to quantify the individual effects of each perturbation on each target. Additivity implies that each perturbation effect on each target is positively contributing to the overall effect measured for that pool. This is an accurate assumption for certain experiments, such as when targets or samples are compressed. When targets are pooled—or when samples containing different targets are pooled—the effect of each perturbation on each individual target is diluted. In other words, each perturbation has an isolated effect on a target in culture, and the sum total of the isolated effects are measured when pooled. Therefore, SUM-based deconvolution breaks down the sum total measured for a pool and assigns estimated fractional effects to each compressed perturbation or target in the pool. The screening platform 210 used SUM-based deconvolution for all target and sample compression experiments described above.
(§7) As mentioned above, SUM-based deconvolution uses the overlapping pool design to identify relative relationships and ranges for the individual effects of each perturbation. When the overlapping pool design is not sufficient to solve for the polynomials representing perturbation effects, an anchor perturbation can be identified by the screening platform 210 based on rank order and assigned an effect size of zero. The anchor perturbation may be the lowest ranked perturbation in the rank order. This then enables the screening platform 210 to solve for the polynomials for the remaining perturbations.

[6] = test system: MOLT-4; assay: Cell viability (CellTiter Glo), compressed perturbation pools with informed pool design, SUM-based deconvolution, MOLT-4; design: scale not given here
Method: as §3, §4, §5, §6, §7

Question: `CCN1CCN(Cc2ccc(Nc3ncc(F)c(-c4cc(F)c5nc(C)n(C(C)C)c5c4)n3)nc2)CC1` [Abemaciclib] was tested. Which DRS ([1]; None (measured individually)) did it give?
Answer: 2.40

Question: What about the DRS from deconvolution ([1]; Samples, 7 Pick 3 randomized (alphabetical) sample pools) of the same molecule?
Answer: 2.57

Question: What about the DRS ([2]; MOLT-4, None (measured individually)) of the same molecule?
Answer: 0.50

Question: And the DRS from deconvolution ([2]; MOLT-4, Samples, 7 Pick 3 randomized (alphabetical) sample pools)?
Answer: 0.55

Question: And the DRS ([3]; None (measured individually), informed pool design table)?
Answer: 13.34

Question: What about the “DRS from MAX-based deconvolution” value ([3]; Samples, 7 Pick 3 informed perturbation pools) of the same molecule?
Answer: 15.14

Question: And the “DRS, REH, MAX” value ([3]; compressed perturbation pools, informed pool design, MAX-based deconvolution)?
Answer: 0.00

Question: And the DRS ([4]; MOLT-4, None (measured individually), informed pool design table)?
Answer: 15.70

Question: What about the “DRS from MAX-based deconvolution” value ([4]; MOLT-4, Samples, 7 Pick 3 informed perturbation pools) of the same molecule?
Answer: 17.03

Question: What about the “DRS, MOLT-4, MAX” value ([4]; MOLT-4, compressed perturbation pools, informed pool design, MAX-based deconvolution) of the same molecule?
Answer: 0.00

Question: And the “DRS, REH, SUM” value [5]?
Answer: 2.69

Question: What about the “DRS, MOLT-4, SUM” value [6] of the same molecule?
Answer: 1.08
